The record followed here is publication PMC6995562, “Evaluating Iso-Mukaadial Acetate and Ursolic Acid Acetate as Plasmodium falciparum Hypoxanthine-Guanine-Xanthine Phosphoribosyltransferase Inhibitors” (Biomolecules, 2019).

By Kd is commonly meant the concentration at which binding is half-saturated.

In the assay the target is T1, Plasmodium falciparum hypoxanthine-guanine-xanthine phosphoribosyltransferase (PfHGXPRT) (Plasmodium falciparum, UniProt Q8IJS1).
T1 construct: gene PF3D7_1012400; recombinant, N-terminal His6 tag (pET28-a), expressed in E. coli BL21 (DE3)
T1 sequence (Q8IJS1 entry or part of it): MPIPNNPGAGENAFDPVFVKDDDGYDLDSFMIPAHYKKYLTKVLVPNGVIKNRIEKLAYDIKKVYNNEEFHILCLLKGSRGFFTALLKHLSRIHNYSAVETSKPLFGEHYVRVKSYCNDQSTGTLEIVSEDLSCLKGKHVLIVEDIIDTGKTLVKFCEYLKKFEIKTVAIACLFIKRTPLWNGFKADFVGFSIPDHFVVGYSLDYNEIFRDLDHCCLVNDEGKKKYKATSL
The assay is described as follows: microscale thermophoresis (MST) with labelled His-tagged protein; UV-Vis spectral change. The class given is binding. (In MST a laser heats a spot of the sample, and binding alters the fluorescence response.)

Where two headings read alike, the source gives them in different places.

The compound `CC(=O)O[C@H]1CC[C@]2(C)[C@H]3CC=C4[C@@H]5[C@@H](C)[C@H](C)CC[C@]5(C(=O)O)CC[C@@]4(C)[C@]3(C)CC[C@H]2C1(C)C` [UAA, ursolic acid acetate] displayed a Kd of 2840 nM.

In the case of iso-mukaadial acetate [IMA], where the note is “read-out: Kd”, the Kd came out at 83.3 nM.
